According to ChEMBL document CHEMBL2016438, “Design and synthesis of naphthoquinone derivatives as antiproliferative agents and 20S proteasome inhibitors” (Bioorg Med Chem Lett, 2012):
pIC50: −log10 of the molar value. Active and inactive are the calls of the source. The calls are words filed in the database; no cut-off is given here.

What was measured:
[1] = test system: KB; test: Antiproliferative activity against human KB cells at 10 ug/ml; type: functional, cell-based
[2] = test system: DU-145; test: Antiproliferative activity against human DU145 cells at 10 ug/ml; type: functional, cell-based
[3] = test system: KBVIN; test: Antiproliferative activity against human KBVIN cells at 10 ug/ml; type: functional, cell-based
[4] = test system: A549; test: Antiproliferative activity against human A549 cells at 10 ug/ml; type: functional, cell-based
[5] = Inhibition of chymotrypsin-like activity of human 20s proteasome
[6] = test system: KB; test: Antiproliferative activity against human KB cells; type: functional, cell-based
[7] = test system: HeLa-GFP; test: Inhibition of proteasome in human HeLa-GFP cells at 10 ug/ml
[8] = test system: A549; test: Antiproliferative activity against human A549 cells; type: functional, cell-based
[9] = test system: DU-145; test: Antiproliferative activity against human DU145 cells; type: functional, cell-based
[10] = Antiproliferative activity against human KBVIN cells; type: functional, cell-based

| SMILES | inhibition [1] | inhibition [2] | inhibition [3] | inhibition [4] | pIC50 [5] | pIC50 [6] | inhibition [7] | pIC50 [8] | pIC50 [9] | pIC50 [10] |
| --- | --- | --- | --- | --- | --- | --- | --- | --- | --- | --- |
| O=C1C(Cl)=C(NCCc2cccs2)C(=O)c2ccccc21 | inactive | inactive | inactive | inactive | – | – | – | – | – | – |
| O=C1C(Cl)=C(Nc2ccc([N+](=O)[O-])cc2)C(=O)c2ccccc21 | – | – | – | – | 5.44 | 4.78 | Active | 4.63 | 4.74 | 4.74 |
| O=C1C(Cl)=C(Nc2ccc(S(=O)(=O)Nc3ccccn3)cc2)C(=O)c2ccccc21 | – | – | – | – | 4.73 | 5.02 | inactive | 4.91 | 4.97 | 4.93 |
| O=C1C(Cl)=C(Nc2ccc3c(c2)OCO3)C(=O)c2ccccc21 | inactive | inactive | inactive | inactive | – | – | – | – | – | – |
| O=C1C(Cl)=C(NCCN2CCOCC2)C(=O)c2ccccc21 | inactive | inactive | inactive | inactive | – | – | – | – | – | – |
| O=C(Nc1ccc(NC2=C(Cl)C(=O)c3ccccc3C2=O)cc1)c1ccccn1 | inactive | inactive | inactive | inactive | – | – | – | – | – | – |
| CC(=O)N[C@@H](CSC(=O)[C@]1([C@@H](O)C(C)C)NC(=O)[C@H](C)[C@@H]1O)C(=O)O [LACTACYSTIN] | – | – | – | – | 5.00 | – | – | – | – | – |
| O=C1C(Cl)=C(Nc2ccc(C(=O)N3CCOCC3)cc2)C(=O)c2ccccc21 | – | – | – | – | – | 4.85 | inactive | 4.90 | 4.86 | 4.84 |
| O=C1C(Cl)=C(NCCCN2CCCC2=O)C(=O)c2ccccc21 | – | – | – | – | – | 4.79 | inactive | 4.69 | 4.74 | 4.72 |
| COc1ccc(CC(=O)Nc2ccc(NC3=C(Cl)C(=O)c4ccccc4C3=O)cc2)cc1 | inactive | inactive | inactive | inactive | – | – | – | – | – | – |
| O=C1C(Cl)=C(Nc2ccc(N3CCOCC3)cc2)C(=O)c2ccccc21 | – | – | – | – | – | 4.89 | inactive | 4.73 | 4.80 | 4.85 |
| O=C(Nc1ccccn1)c1ccc(NC2=C(Cl)C(=O)c3ccccc3C2=O)cc1 | inactive | inactive | inactive | inactive | – | – | – | – | – | – |
| COc1cc(NC(=O)c2ccc(NC3=C(Cl)C(=O)c4ccccc4C3=O)cc2)cc(OC)c1 | – | – | – | – | – | 4.98 | inactive | 5.02 | 4.98 | 4.95 |
| O=C1C(Cl)=C(Nc2ccc(Oc3ccccc3)cc2)C(=O)c2ccccc21 | – | – | – | – | – | 5.09 | inactive | 5.54 | 5.34 | 5.89 |
| O=C(NCCc1ccccc1)c1ccc(NC2=C(Cl)C(=O)c3ccccc3C2=O)cc1 | inactive | inactive | inactive | inactive | – | – | – | – | – | – |
| COc1ccc(C(=O)Nc2ccc(NC3=C(Cl)C(=O)c4ccccc4C3=O)cc2)cc1 | inactive | inactive | inactive | inactive | – | – | – | – | – | – |
